Measured values: US11541055B2, “Inhibitors of human immunodeficiency virus replication” (ViiV Healthcare UK (No. 5) LIMITED, priority 2018, dated 2023)

Legend:
[1] = test system: recombinant NL4-3 virus (Renilla luciferase) in MT-2 cells; assay: HIV cell culture assay (antiviral activity, luciferase readout); format: cell-based; settings: Renilla, NL43
Method in brief: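 MT-2 cells were infected with recombinant NL4-3 virus carrying Renilla luciferase in place of part of nef. Cells were cultured 4–5 days with serially diluted compound, and luciferase was measured with a live-cell substrate. EC50 was calculated from the median effect equation.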

[2] = Compound cytotoxicity, XTT-based colorimetric assay; format: cell-based; settings: human; uninfected MT2 cells, day 4, XTT
Method in brief: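 Run under the antiviral-assay protocol but without virus. Viability was read on day 4 and CC50 values were derived from the readout.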

SMILES	EC50 [1] [nM]	CC50 at 4 days [2] [nM]
Cc1cc(C(F)(F)F)nc(-c2ccc3c(=O)n(-c4ccc(Cl)c5c(NS(C)(=O)=O)nn(C)c45)c([C@H](Cc4cc(F)cc(F)c4)NC(=O)Cn4nc(C(F)F)c5c4C(F)(F)[C@@H]4C[C@H]54)nc3c2)n1 [Example 53, N—((S)-1-((3P)-3-(4-chloro-1-methyl-3-(methylsulfonamido)-1H-indazol-7-yl)-7-(4-methyl-6-(trifluoromethyl)pyrimidin-2-yl)-4-oxo-3,4-dihydroquinazolin-2-yl)-2-(3,5-difluorophenyl)ethyl)-2-((3bS,4aR)-3-(difluoromethyl)-5,5-difluoro-3b,4,4a,5-tetrahydro-1H-cyclopropa[3,4]cyclopenta[1,2-c]pyrazol-1-yl)acetamide]	0.16	> 500
Cc1nccc(-c2ccc3c(=O)n(-c4ccc(Cl)c5c(NS(C)(=O)=O)nn(CC(F)F)c45)c([C@H](Cc4cc(F)cc(F)c4)NC(=O)Cn4nc(C(F)F)c5c4C(F)(F)[C@@H]4C[C@H]54)nc3c2)n1 (atropisomer, axis not shown) [Example 121, N-[(1S)-1-{3-[4-chloro-1-(2,2-difluoroethyl)-3-methanesulfonamido-1H-indazol-7-yl]-7-(2-methylpyrimidin-4-yl)-4-oxo-3,4-dihydroquinazolin-2-yl}-2-(3,5-difluorophenyl)ethyl]-2-[(2S,4R)-9-(difluoromethyl)-5,5-difluoro-7,8-diazatricyclo[4.3.0.0^2,^4]nona-1(6),8-dien-7-yl]acetamide]	0.067	> 500
Cc1ncc(C)c(-c2ccc3c(=O)n(-c4ccc(Cl)c5c(NS(C)(=O)=O)nn(C)c45)c([C@H](Cc4cc(F)cc(F)c4)NC(=O)Cn4nc(C(F)F)c5c4C(F)(F)[C@@H]4C[C@H]54)nc3c2)n1 (atropisomer, axis not shown; (P)) [Example 77, N—((S)-1-((3P)-3-(4-chloro-1-methyl-3-(methylsulfonamido)-1H-indazol-7-yl)-7-(2,5-dimethylpyrimidin-4-yl)-4-oxo-3,4-dihydroquinazolin-2-yl)-2-(3,5-difluorophenyl)ethyl)-2-((3bS,4aR)-3-(difluoromethyl)-5,5-difluoro-3b,4,4a,5-tetrahydro-1H-cyclopropa[3,4]cyclopenta[1,2-c]pyrazol-1-yl)acetamide]	0.071	> 500
CC(C)c1nccc(-c2ccc3c(=O)n(-c4ccc(Cl)c5c(NS(C)(=O)=O)nn(CC(F)(F)F)c45)c([C@H](Cc4cc(F)cc(F)c4)NC(=O)Cn4nc(C(F)F)c5c4C(F)(F)[C@@H]4C[C@H]54)nc3c2)n1 (atropisomer, axis not shown) [Example 108]	0.12	> 500
COc1ncc(-c2ccc3c(=O)n(-c4ccc(Cl)c5c(NS(=O)(=O)C6CC6)nn(CC(F)F)c45)c([C@H](Cc4cc(F)cc(F)c4)NC(=O)Cn4nc(C(F)F)c5c4C(F)(F)[C@@H]4C[C@H]54)nc3c2)cn1 (atropisomer, axis not shown) [Example 99]	0.089	> 500
O=C(Cn1nc(C(F)F)c2c1C(F)(F)[C@@H]1C[C@H]21)N[C@@H](Cc1cc(F)cc(F)c1)c1nc2cc(-c3nccc(C(F)(F)F)n3)ccc2c(=O)n1-c1ccc(Cl)c2c(NS(=O)(=O)C3CC3)nn(CC(F)F)c12 (atropisomer, axis not shown; (P)) [Example 84, N—((S)-1-((3P)-3-(4-chloro-3-(cyclopropanesulfonamido)-1-(2,2-difluoroethyl)-1H-indazol-7-yl)-4-oxo-7-(4-(trifluoromethyl)pyrimidin-2-yl)-3,4-dihydroquinazolin-2-yl)-2-(3,5-difluorophenyl)ethyl)-2-((3bS,4aR)-3-(difluoromethyl)-5,5-difluoro-3b,4,4a,5-tetrahydro-1H-cyclopropa[3,4]cyclopenta[1,2-c]pyrazol-1-yl)acetamide]	0.22	> 500
CCc1cc(-c2ccc3c(=O)n(-c4ccc(Cl)c5c(NS(C)(=O)=O)nn(C)c45)c([C@H](Cc4cc(F)cc(F)c4)NC(=O)Cn4nc(C(F)F)c5c4C(F)(F)[C@@H]4C[C@H]54)nc3c2)nc(C)n1 (atropisomer, axis not shown; (P)) [Example 62, N—((S)-1-((3P)-3-(4-chloro-1-methyl-3-(methylsulfonamido)-1H-indazol-7-yl)-7-(6-ethyl-2-methylpyrimidin-4-yl)-4-oxo-3,4-dihydroquinazolin-2-yl)-2-(3,5-difluorophenyl)ethyl)-2-((3bS,4aR)-3-(difluoromethyl)-5,5-difluoro-3b,4,4a,5-tetrahydro-1H-cyclopropa[3,4]cyclopenta[1,2-c]pyrazol-1-yl)acetamide]	0.11	> 500
Cc1ncnc(C)c1-c1ccc2c(=O)n(-c3ccc(Cl)c4c(NS(C)(=O)=O)nn(C)c34)c([C@H](Cc3cc(F)cc(F)c3)NC(=O)Cn3nc(C(F)F)c4c3C(F)(F)[C@@H]3C[C@H]43)nc2c1 (atropisomer, axis not shown; (P)) [Example 40, N—((S)-1-((3P)-3-(4-chloro-1-methyl-3-(methylsulfonamido)-1H-indazol-7-yl)-7-(4,6-dimethylpyrimidin-5-yl)-4-oxo-3,4-dihydroquinazolin-2-yl)-2-(3,5-difluorophenyl)ethyl)-2-((3bS,4aR)-3-(difluoromethyl)-5,5-difluoro-3b,4,4a,5-tetrahydro-1H-cyclopropa[3,4]cyclopenta[1,2-c]pyrazol-1-yl)acetamide]	0.053	> 500
Cc1ccnc(-c2ccc3c(=O)n(-c4ccc(Cl)c5c(NS(C)(=O)=O)nn(C)c45)c([C@H](Cc4cc(F)cc(F)c4)NC(=O)Cn4nc(C(F)F)c5c4C(F)(F)[C@@H]4C[C@H]54)nc3c2)c1 (atropisomer, axis not shown; (P)) [Example 2, N—((S)-1-((3P)-3-(4-chloro-1-methyl-3-(methylsulfonamido)-1H-indazol-7-yl)-7-(4-methylpyridin-2-yl)-4-oxo-3,4-dihydroquinazolin-2-yl)-2-(3,5-difluorophenyl)ethyl)-2-((3bS,4aR)-3-(difluoromethyl)-5,5-difluoro-3b,4,4a,5-tetrahydro-1H-cyclopropa[3,4]cyclopenta[1,2-c]pyrazol-1-yl)acetamide]	0.059	> 500
Cn1nc(NS(C)(=O)=O)c2c(Cl)ccc(-n3c([C@H](Cc4cc(F)cc(F)c4)NC(=O)Cn4nc(C(F)F)c5c4C(F)(F)[C@@H]4C[C@H]54)nc4cc(-c5ccccc5S(=O)(=O)C(C)(C)C)ccc4c3=O)c21 [Example 32, N—((S)-1-(7-(2-(tert-butylsulfonyl)phenyl)-(3P)-3-(4-chloro-1-methyl-3-(methylsulfonamido)-1H-indazol-7-yl)-4-oxo-3,4-dihydroquinazolin-2-yl)-2-(3,5-difluorophenyl)ethyl)-2-((3bS,4aR)-3-(difluoromethyl)-5,5-difluoro-3b,4,4a,5-tetrahydro-1H-cyclopropa[3,4]cyclopenta[1,2-c]pyrazol-1-yl)acetamide]	0.11	> 500
Cc1ccc(-n2c([C@H](Cc3cc(F)cc(F)c3)NC(=O)Cn3nc(C(F)F)c4c3C(F)(F)[C@@H]3C[C@H]43)nc3cc(-c4ccccc4N(C)S(C)(=O)=O)ccc3c2=O)c2c1c(NS(=O)(=O)C1CC1)nn2CC(F)F (atropisomer, axis not shown) [Example 145, N-[(1S)-1-{3-[3-cyclopropanesulfonamido-1-(2,2-difluoroethyl)-4-methyl-1H-indazol-7-yl]-7-[2-(N-methylmethanesulfonamido)phenyl]-4-oxo-3,4-dihydroquinazolin-2-yl}-2-(3,5-difluorophenyl)ethyl]-2-[(2S,4R)-9-(difluoromethyl)-5,5-difluoro-7,8-diazatricyclo[4.3.0.0^2,^4]nona-1(6),8-dien-7-yl]acetamide]	0.68	> 500
CS(=O)(=O)Nc1nn(CC(F)(F)F)c2c(-n3c([C@H](Cc4cc(F)cc(F)c4)NC(=O)Cn4nc(C(F)F)c5c4C(F)(F)[C@@H]4C[C@H]54)nc4cc(-c5ncccc5S(C)(=O)=O)ccc4c3=O)ccc(Cl)c12 (atropisomer, axis not shown) [Example 112]	0.075	> 500
Cn1nc(NS(C)(=O)=O)c2c(Cl)ccc(-n3c([C@H](Cc4cc(F)cc(F)c4)NC(=O)Cn4nc(C(F)F)c5c4C(F)(F)[C@@H]4C[C@H]54)nc4cc(-c5cccnn5)ccc4c3=O)c21 (atropisomer, axis not shown; (P)) [Example 49, N—((S)-1-((3P)-3-(4-chloro-1-methyl-3-(methylsulfonamido)-1H-indazol-7-yl)-4-oxo-7-(pyridazin-3-yl)-3,4-dihydroquinazolin-2-yl)-2-(3,5-difluorophenyl)ethyl)-2-((3bS,4aR)-3-(difluoromethyl)-5,5-difluoro-3b,4,4a,5-tetrahydro-1H-cyclopropa[3,4]cyclopenta[1,2-c]pyrazol-1-yl)acetamide]	0.071	> 500
Cc1ccc(F)c(-c2ccc3c(=O)n(-c4ccc(Cl)c5c(NS(C)(=O)=O)nn(C)c45)c([C@H](Cc4cc(F)cc(F)c4)NC(=O)Cn4nc(C(F)F)c5c4C(F)(F)[C@@H]4C[C@H]54)nc3c2)n1 (atropisomer, axis not shown; (P)) [Example 22, N—((S)-1-((3P)-3-(4-chloro-1-methyl-3-(methylsulfonamido)-1H-indazol-7-yl)-7-(3-fluoro-6-methylpyridin-2-yl)-4-oxo-3,4-dihydroquinazolin-2-yl)-2-(3,5-difluorophenyl)ethyl)-2-((3bS,4aR)-3-(difluoromethyl)-5,5-difluoro-3b,4,4a,5-tetrahydro-1H-cyclopropa[3,4]cyclopenta[1,2-c]pyrazol-1-yl)acetamide]	0.11	> 500
CN(c1ccccc1-c1ccc2c(=O)n(-c3ccc(Cl)c4c(NS(=O)(=O)C5CC5)nn(CC(F)F)c34)c([C@H](Cc3cc(F)cc(F)c3)NC(=O)Cn3nc(C(F)F)c4c3C(F)(F)[C@@H]3C[C@H]43)nc2c1)S(C)(=O)=O (atropisomer, axis not shown) [Example 144]	0.18	> 500
